In PubChem BioAssay AID1919001 (Molecular Pharmacology Branch, DTP, NCI, 2023):
“And” between values parts separate entries of the source, which are not always exact repeats. Equal entries are not always repeated. Values belong to the compound of their own block, whether it stands above or below them.

Test system: 699152-130-R-J1-PDC complex spheroid growth
Experiment: Anticancer human tumor 699152-130-R-J1-PDC patient-derived pancreatic carcinoma cell line growth inhibition [AhR]
Details: for viability, T/C: stronger effect = lower value
Procedure, shortened: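 Agents were dosed in half-log steps down from roughly clinical Cmax, or from 10 microM where Cmax was unknown, alone and with AhR antagonists. Read-out: percent test/control growth of tumor spheroids containing HUVEC and MSC stromal cells.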

[1] = curve of first compound, second compound 0.1 µM
[2] = curve of first compound, second compound 0.316 µM
[3] = curve of first compound, second compound 1 µM
[4] = curve of first compound, second compound 3.16 µM
[5] = curve of first compound, second compound 10 µM
[6] = second compound 0.1 µM, first compound 0.0316 µM
[7] = second compound 0.1 µM, first compound 0.1 µM
[8] = second compound 0.1 µM, first compound 0.316 µM
[9] = second compound 0.1 µM, first compound 1 µM
[10] = second compound 0.1 µM, first compound 3.16 µM
[11] = second compound 0.1 µM, first compound 10 µM
[12] = second compound 0.316 µM, first compound 0.0316 µM
[13] = second compound 0.316 µM, first compound 0.1 µM
[14] = second compound 0.316 µM, first compound 0.316 µM
[15] = second compound 0.316 µM, first compound 1 µM
[16] = second compound 0.316 µM, first compound 3.16 µM
[17] = second compound 0.316 µM, first compound 10 µM
[18] = second compound 1 µM, first compound 0.0316 µM
[19] = second compound 1 µM, first compound 0.1 µM
[20] = second compound 1 µM, first compound 0.316 µM
[21] = second compound 1 µM, first compound 1 µM
[22] = second compound 1 µM, first compound 3.16 µM
[23] = second compound 1 µM, first compound 10 µM
[24] = second compound 3.16 µM, first compound 0.0316 µM
[25] = second compound 3.16 µM, first compound 0.1 µM
[26] = second compound 3.16 µM, first compound 0.316 µM
[27] = second compound 3.16 µM, first compound 1 µM
[28] = second compound 3.16 µM, first compound 3.16 µM
[29] = second compound 3.16 µM, first compound 10 µM
[30] = second compound 10 µM, first compound 0.0316 µM
[31] = second compound 10 µM, first compound 0.1 µM
[32] = second compound 10 µM, first compound 0.316 µM
[33] = second compound 10 µM, first compound 1 µM
[34] = second compound 10 µM, first compound 3.16 µM
[35] = second compound 10 µM, first compound 10 µM
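Also: compound exposure lasted 7 days after spheroids had grown for 3 days.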

SMILES: O=C(c1cc(Cc2n[nH]c(=O)c3ccccc23)ccc1F)N1CCN(C(=O)C2CC2)CC1 + CC(CO)NC(=O)c1cc(-c2ccc(Cl)cc2)nn(-c2cnn(C)c2)c1=O
- IC50 [1]: > 10 µM
- IC50 [2]: > 10 µM
- IC50 [3]: > 10 µM
- IC50 [4]: > 10 µM
- IC50 [5]: > 10 µM
- viability, T/C [6]: 85.1%
- viability, T/C [7]: 107%
- viability, T/C [8]: 93.3%
- viability, T/C [9]: 81.8%
- viability, T/C [10]: 97%
- viability, T/C [11]: 89.5%
- viability, T/C [12]: 93%
- viability, T/C [13]: 88.3%
- viability, T/C [14]: 88.8%
- viability, T/C [15]: 87.7%
- viability, T/C [16]: 77.3%
- viability, T/C [17]: 78%
- viability, T/C [18]: 87.6%
- viability, T/C [19]: 95.9%
- viability, T/C [20]: 93.4%
- viability, T/C [21]: 86.6%
- viability, T/C [22]: 85.5%
- viability, T/C [23]: 77.4%
- viability, T/C [24]: 82.8%
- viability, T/C [25]: 93.1%
- viability, T/C [26]: 85.5%
- viability, T/C [27]: 80.5%
- viability, T/C [28]: 65.6%
- viability, T/C [29]: 69.7%
- viability, T/C [30]: 84.3%
- viability, T/C [31]: 83.1%
- viability, T/C [32]: 80%
- viability, T/C [33]: 75.3%
- viability, T/C [34]: 79.3%
- viability, T/C [35]: 69.9%

SMILES: O=C(C=Cn1cnc(-c2cc(C(F)(F)F)cc(C(F)(F)F)c2)n1)NNc1cnccn1 + CC(CO)NC(=O)c1cc(-c2ccc(Cl)cc2)nn(-c2cnn(C)c2)c1=O
- IC50 [1]: > 3 µM
- IC50 [2]: > 3 µM
- IC50 [3]: > 3 µM
- IC50 [4]: > 3 µM
- IC50 [5]: > 3 µM
- viability, T/C (second compound 0.1 µM, first compound 0.00949 µM): 87.8%
- viability, T/C (second compound 0.1 µM, first compound 0.03 µM): 98.4%
- viability, T/C (second compound 0.1 µM, first compound 0.0949 µM): 82.1%
- viability, T/C (second compound 0.1 µM, first compound 0.3 µM): 74.3%
- viability, T/C (second compound 0.1 µM, first compound 0.949 µM): 82.5%
- viability, T/C (second compound 0.1 µM, first compound 3 µM): 83.2%
- viability, T/C (second compound 0.316 µM, first compound 0.00949 µM): 90.2%
- viability, T/C (second compound 0.316 µM, first compound 0.03 µM): 82.5%
- viability, T/C (second compound 0.316 µM, first compound 0.0949 µM): 76.7%
- viability, T/C (second compound 0.316 µM, first compound 0.3 µM): 87.3%
- viability, T/C (second compound 0.316 µM, first compound 0.949 µM): 87.5%
- viability, T/C (second compound 0.316 µM, first compound 3 µM): 70.5%
- viability, T/C (second compound 1 µM, first compound 0.00949 µM): 88.8%
- viability, T/C (second compound 1 µM, first compound 0.03 µM): 83.9%
- viability, T/C (second compound 1 µM, first compound 0.0949 µM): 75.5%
- viability, T/C (second compound 1 µM, first compound 0.3 µM): 74%
- viability, T/C (second compound 1 µM, first compound 0.949 µM): 82.6%
- viability, T/C (second compound 1 µM, first compound 3 µM): 79%
- viability, T/C (second compound 3.16 µM, first compound 0.00949 µM): 92.1%
- viability, T/C (second compound 3.16 µM, first compound 0.03 µM): 88%
- viability, T/C (second compound 3.16 µM, first compound 0.0949 µM): 87%
- viability, T/C (second compound 3.16 µM, first compound 0.3 µM): 71.8%
- viability, T/C (second compound 3.16 µM, first compound 0.949 µM): 71.2%
- viability, T/C (second compound 3.16 µM, first compound 3 µM): 75.4%
- viability, T/C (second compound 10 µM, first compound 0.00949 µM): 99%
- viability, T/C (second compound 10 µM, first compound 0.03 µM): 82.1%
- viability, T/C (second compound 10 µM, first compound 0.0949 µM): 68.7%
- viability, T/C (second compound 10 µM, first compound 0.3 µM): 72.4%
- viability, T/C (second compound 10 µM, first compound 0.949 µM): 82.3%
- viability, T/C (second compound 10 µM, first compound 3 µM): 73.4%

SMILES: O=C(c1cc(Cc2n[nH]c(=O)c3ccccc23)ccc1F)N1CCN(C(=O)C2CC2)CC1
- viability, T/C (compound 0.0316 µM): 98.3% and 101% and 99.8%
- viability, T/C (compound 0.1 µM): 104% and 105% and 98.3%
- viability, T/C (compound 0.316 µM): 101% and 95% and 92%
- viability, T/C (compound 1 µM): 104% and 102% and 95.3%
- viability, T/C (compound 3.16 µM): 98.9% and 93% and 89.2%
- viability, T/C (compound 10 µM): 103% and 82.8% and 83.2%
- IC50 (curve of compound): > 10 µM

SMILES: CCc1c2c(nc3ccc(O)cc13)-c1cc3c(c(=O)n1C2)COC(=O)[C@]3(O)CC
- viability, T/C (compound 0.000949 µM): 85.1% and 90.1% and 88.5%
- viability, T/C (compound 0.003 µM): 86.8% and 87.7% and 95.1%
- viability, T/C (compound 0.00949 µM): 66.3% and 61.5% and 59.9%
- viability, T/C (compound 0.03 µM): 55.8% and 44.3% and 57.9%
- viability, T/C (compound 0.0949 µM): 49% and 43.6% and 52%
- viability, T/C (compound 0.3 µM): 33.9% and 33.8% and 38%
- IC50 (curve of compound): 0.0604 µM and 0.02 µM and 0.0277 µM

SMILES: COc1cc(C2c3cc4c(cc3C(OC3OC5COC(C)OC5C(O)C3O)C3COC(=O)C23)OCO4)cc(OC)c1O (stereo unspecified) + CC(CO)NC(=O)c1cc(-c2ccc(Cl)cc2)nn(-c2cnn(C)c2)c1=O
- IC50 [1]: 9.98 µM
- IC50 [2]: 8.52 µM
- IC50 [3]: > 10 µM
- IC50 [4]: 6.67 µM
- IC50 [5]: 7.75 µM
- viability, T/C [6]: 101%
- viability, T/C [7]: 98.3%
- viability, T/C [8]: 87.8%
- viability, T/C [9]: 69.4%
- viability, T/C [10]: 61.9%
- viability, T/C [11]: 48.6%
- viability, T/C [12]: 93.7%
- viability, T/C [13]: 93.7%
- viability, T/C [14]: 74%
- viability, T/C [15]: 61.2%
- viability, T/C [16]: 54.8%
- viability, T/C [17]: 47.5%
- viability, T/C [18]: 95.1%
- viability, T/C [19]: 92.3%
- viability, T/C [20]: 82.2%
- viability, T/C [21]: 73.3%
- viability, T/C [22]: 53.2%
- viability, T/C [23]: 53.9%
- viability, T/C [24]: 82.4%
- viability, T/C [25]: 86%
- viability, T/C [26]: 69.5%
- viability, T/C [27]: 65.5%
- viability, T/C [28]: 59.1%
- viability, T/C [29]: 45.5%
- viability, T/C [30]: 77.6%
- viability, T/C [31]: 82.9%
- viability, T/C [32]: 79.7%
- viability, T/C [33]: 57%
- viability, T/C [34]: 57.1%
- viability, T/C [35]: 43.3%

The next lines start with results.

- IC50 (curve of compound): > 10 µM
SMILES: CC1(C)CCC(CN2CCN(c3ccc(C(=O)NS(=O)(=O)c4ccc(NCC5CCOCC5)c([N+](=O)[O-])c4)c(Oc4cnc5[nH]ccc5c4)c3)CC2)=C(c2ccc(Cl)cc2)C1
- viability, T/C (compound 0.0316 µM): 99.2% and 99% and 94.1%
- viability, T/C (compound 0.1 µM): 122% and 97.6% and 103%
- viability, T/C (compound 0.316 µM): 110% and 102% (2×)
- viability, T/C (compound 1 µM): 100% and 106% and 101%
- viability, T/C (compound 3.16 µM): 106% and 89.5% and 115%
- viability, T/C (compound 10 µM): 94% and 64.3% and 58.6%

- IC50 [1]: > 10 µM
- IC50 [2]: > 10 µM
- IC50 [3]: > 10 µM
- IC50 [4]: > 10 µM
- IC50 [5]: < 0.0316 µM
SMILES: COc1cc(Nc2ncc3c(n2)-c2ccc(Cl)cc2C(c2c(F)cccc2OC)=NC3)ccc1C(=O)O + Cc1cncc(-c2nc(NCCc3c[nH]c4ccccc34)c3ncn(C(C)C)c3n2)c1
- viability, T/C [6]: 80.3%
- viability, T/C [7]: 77.1%
- viability, T/C [8]: 73.4%
- viability, T/C [9]: 56.5%
- viability, T/C [10]: 56.1%
- viability, T/C [11]: 57.1%
- viability, T/C [12]: 76.2%
- viability, T/C [13]: 81%
- viability, T/C [14]: 72.4%
- viability, T/C [15]: 59.8%
- viability, T/C [16]: 55.9%
- viability, T/C [17]: 54.8%
- viability, T/C [18]: 95.5%
- viability, T/C [19]: 85.3%
- viability, T/C [20]: 79.5%
- viability, T/C [21]: 69%
- viability, T/C [22]: 59.7%
- viability, T/C [23]: 55.5%
- viability, T/C [24]: 92.5%
- viability, T/C [25]: 80.9%
- viability, T/C [26]: 84.8%
- viability, T/C [27]: 64.6%
- viability, T/C [28]: 64.2%
- viability, T/C [29]: 57.9%
- viability, T/C [30]: 23.8%
- viability, T/C [31]: 21.3%
- viability, T/C [32]: 21.3%
- viability, T/C [33]: 16.9%
- viability, T/C [34]: 16.3%
- viability, T/C [35]: 22.3%
